Molecules are shown by their SMILES.

Experiment [1] addresses T1, M71 odorant receptor (Mus musculus, UniProt Q60893).
T1 sequence (Q60893 1-309): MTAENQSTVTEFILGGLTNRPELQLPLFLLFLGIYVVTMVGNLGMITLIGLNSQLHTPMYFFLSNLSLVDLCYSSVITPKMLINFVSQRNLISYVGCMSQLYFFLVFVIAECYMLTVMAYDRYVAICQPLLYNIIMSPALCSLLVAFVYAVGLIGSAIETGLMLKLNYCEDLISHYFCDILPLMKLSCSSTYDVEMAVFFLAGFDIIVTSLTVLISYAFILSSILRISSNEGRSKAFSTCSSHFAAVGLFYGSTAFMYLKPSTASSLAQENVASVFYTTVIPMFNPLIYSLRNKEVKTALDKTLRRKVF
The experiment is described as follows: patch clamp of dendritic knobs of M71- or M71::GFP-expressing olfactory sensory neurons, dose response. Type of experiment: cell-based. On the set-up: gene Or8a1; full-length M71 and M71::GFP C-terminal fusion expressed in olfactory sensory neurons. A general note: In patch-clamp work, channel activity is measured electrically.

In experiment [2] the target is T1, M71 odorant receptor. On the set-up: gene Or8a1.

With `CC(=O)c1ccccc1N` [2aACP, 2-amino acetophenone], the EC50 (commonly the concentration at which the effect is half-maximal) in experiment [1] turned out to be 650 ± 80 nM.
For `CCc1occc(=O)c1O` [eMLT, ethyl maltol], in experiment [2], the “patch clamp of dendritic knobs of olfactory sensory neurons, peak current at 10” value was “olfactory neurons expressing either M71 or M71::GFP are activated by M71 specific ligands”.

These data come from PMC4626375, “In Vitro Mutational and Bioinformatics Analysis of the M71 Odorant Receptor and Its Superfamily” (PLoS ONE, 2015).
